{"source": "patent US20120184624A1", "about": "“Treatment of Alzheimer's Disease” (priority 2010, published 2012)", "key": {"MID1-α4-PP2Ac complex": {"molecular_target": "T1, MID1-α4-PP2Ac complex (Homo sapiens, UniProt P67775+P78318)", "T1 construct": "made in house; host or cells: E. coli BL21", "T1 sequence (P67775 whole entry)": "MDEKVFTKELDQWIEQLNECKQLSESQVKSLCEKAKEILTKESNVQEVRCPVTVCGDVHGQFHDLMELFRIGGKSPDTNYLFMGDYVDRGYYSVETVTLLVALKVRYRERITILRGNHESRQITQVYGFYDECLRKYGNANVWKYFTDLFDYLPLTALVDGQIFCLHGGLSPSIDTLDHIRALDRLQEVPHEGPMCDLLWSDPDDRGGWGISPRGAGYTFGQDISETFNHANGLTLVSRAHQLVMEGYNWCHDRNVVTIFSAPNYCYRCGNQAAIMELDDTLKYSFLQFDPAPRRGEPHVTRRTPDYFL", "T1 sequence (P78318 whole entry)": "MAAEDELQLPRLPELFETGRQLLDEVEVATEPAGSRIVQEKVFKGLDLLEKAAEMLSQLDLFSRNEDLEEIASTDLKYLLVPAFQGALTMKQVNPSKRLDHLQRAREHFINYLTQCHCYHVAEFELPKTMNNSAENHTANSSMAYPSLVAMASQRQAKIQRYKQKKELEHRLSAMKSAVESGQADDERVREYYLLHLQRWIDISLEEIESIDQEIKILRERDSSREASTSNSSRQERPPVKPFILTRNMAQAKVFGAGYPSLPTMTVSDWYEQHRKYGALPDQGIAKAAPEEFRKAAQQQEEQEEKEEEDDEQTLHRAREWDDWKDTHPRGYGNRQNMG", "assay": "Affinity chromatography of the PP2Ac-MID1 B-box-α4 complex", "format": "binding", "conditions": "metformin at different concentrations in the washing buffer", "procedure": "The MID1-B-box-domains, α4, or HIS-tagged PP2Ac were expressed in E. coli BL21. Cells were lysed by French press in buffer A (50 mM Na-phosphate, 300 mM NaCl, 20 mM imidazole, pH 8.0). Lysates were mixed and PP2A-protein complexes were immobilized on Ni-NTA columns (Qiagen) and washed extensively with buffer A containing 10% glycerol and 0.25% Tween20. After washing columns were eluted with buffer A containing different concentrations of metformin. Elutions were analyzed on SDS-Gels followed by Coomassie staining."}, "[1]": {"system": "ribosomal protein S6 (S241/244)", "assay": "Phosphorylation of ribosomal protein S6 (mTORC1 signalling) in primary neurons from wild-type mice", "format": "cell-based, mouse", "procedure": "(§1) Primary cortical neurons were isolated from brain of wt or transgenic (Mapt^tm1(EGFP)klt Tg(MAPT)8cPdav/J; Jackson Laboratory) embryos at day 14.5. Cortices were collected in DMEM (Lonza) and cells were dissociated by incubation with Trypsin/EDTA for 6.5 min at 37° C. Cells were then diluted in neurobasal medium (Gibco-BRL) containing B27 supplement (Gibco BRL). Cells were plated at a density of 4.0×10^5 onto 0.2 mg/ml poly-D-lysin (Sigma) and 2 μg/ml Laminin (Sigma) coated 12 well plates. Neurons were incubated at 37° C. with 8% CO2. One hour after seeding a complete change of medium was performed. Later on, each 96 hours half volumes of the medium were replaced by fresh medium. After 7 days in culture neurons were treated.\n(§2) Cells were incubated with the respective substances as follows: Metformin (Sigma) at final concentrations up to 2.5 mM for 1 to >24 hours, okadaic acid (Sigma) at final concentrations from 1 nM to 10 nM for 4 h, Fostricien (Sigma) at final concentration of 1 μM for 4 h and AICAR (cell signalling) at final concentration of 5 mM for 0.5-16 h. For cell treatment without insulin, medium containing B27+insulin supplement was replaced with medium containing B27-supplement without insulin 24 h before treatment. 3 groups of 2 mice were treated with or without 5 mg/l metformin in the drinking water. […]"}, "tau": {"system": "tau", "assay": "Brain tau phosphorylation in mice fed metformin in the drinking water", "format": "in vivo, mouse", "conditions": "5 mg/ml in the drinking water for 16-24 days", "procedure": "(§3) Cells were incubated with the respective substances as follows: Metformin (Sigma) at final concentrations up to 2.5 mM for 1 to >24 hours, okadaic acid (Sigma) at final concentrations from 1 nM to 10 nM for 4 h, Fostricien (Sigma) at final concentration of 1 μM for 4 h and AICAR (cell signalling) at final concentration of 5 mM for 0.5-16 h. For cell treatment without insulin, medium containing B27+insulin supplement was replaced with medium containing B27-supplement without insulin 24 h before treatment. […]\nMice were decapitated and brains were rapidly dissected in nitrogen. Brains were homogenized in ice-cold lysis buffer containing 10 mmol/l Tris pH 7.5, 150 mM NaCl, 1 mM EDTA, 1 mM EGTA, 1% NP40, protease inhibitors(complete mini, Roche), phosphatase inhibitors (PhosStop, Roche). Lysates were sonicated and centrifuged at 25000 g for 10 min at 4° C.\n(§4) Cell pellets were homogenized in Magic-Mix (48% UREA, 15 mM Tris-HCL pH 7.5, 8.7% Glycerin, 1% SDS, 0.004% Bromphenolblue, 143 mM Mercaptoethanol), sonicated and boiled for 5 min at 95° C. Proteins were resolved on 8 or 10% SDS gels and blotted onto PVDF-membranes (Roche). Antibodies used in this study were purchased from the following companies: Tau-5 (Biosource), anti-human PHF pSer202 (Thermo scientific), Tau pSer356 (Biosource), Tau pSer262 (Biosource), Tau pSer396 (Sigma), Actin (Sigma), ACC (cell signalling), ACC pSer79 (cell signalling), phospho-S6 ribosomal protein pSer241/244 (cell signalling), p70S6 Kinase (cell signalling), p70S6K pThr421/pSer424 (cell signalling), mTOR (cell signalling), AMPK (cell signallling, AMPK pThr172 (cell singnaling), HRP-anti-rabbit (Amersham), HRP-anti-mouse (Dianova). The resulting bands were quantified using Imagequant5.2. Statistical analyses were performed using SigmaStat software package (v 3.0, SPSS, USA). For timecourse or dose-response studies, data were analyses by one-way ANOVA with post hoc Dunnett's or Bonferonni test to accommodate for multiple comparisons. A Student's t-test was used for two-group comparisons, as appropriate."}, "[2]": {"molecular_target": "T2, purified PP2Ac (catalytic subunit of PP2A) (Homo sapiens, UniProt P67775)", "T2 construct": "purchased upstate", "T2 sequence (P67775 whole entry)": "as the sequence (P67775 whole entry) above", "assay": "PP2A activity assay (malachite green), purified PP2Ac", "format": "biochemical", "conditions": "10 mM metformin, 1 hour", "procedure": "(§5) Either purified PP2Ac (upstate), cell lysates or PP2A-holoenzymes, which were purified by immunoprecipitation using a PP2A-A-subunit antibody (Millipore), were incubated with or without 10 mM metformin or 10 nM okadaic acid for 1 hour. Afterwards PP2A phosphatase activity was determined using a malachite green assay kit (upstate) following the manufacturer's instructions."}, "AMPK": {"system": "AMPK", "assay": "Brain AMPK phosphorylation in mice fed metformin in the drinking water", "format": "in vivo, mouse", "conditions": "5 mg/ml in the drinking water for 16-24 days", "procedure": "as §3\nMice were decapitated and brains were rapidly dissected in nitrogen. […]\nas §4, with “Proteins were resolved on 8 or 10% SDS gels and blotted onto PVDF-membranes (Roche).” left out, “Statistical analyses were performed using SigmaStat software package (v 3.0, SPSS, USA). For timecourse or dose-response studies, data were analyses by one-way ANOVA with post hoc Dunnett's or Bonferonni test to accommodate for multiple comparisons. A Student's t-test was used for two-group comparisons, as appropriate.” left out"}, "human tau": {"system": "human tau", "assay": "Tau phosphorylation by Western blot in primary cortical neurons of mice expressing human tau", "format": "cell-based", "conditions": "increasing concentration of metformin over 4 hours", "procedure": "as §1, §2"}, "PP2A-holoenzymes": {"system": "PP2A-holoenzymes", "assay": "PP2A activity assay (malachite green), PP2A-holoenzymes immunopurified from HeLa cell lysates", "format": "biochemical", "conditions": "10 mM metformin, 1 hour", "procedure": "as §5"}}}
{"molecule": "CN(C)C(=N)N=C(N)N", "note": "[metformin, Metformin]", "values": [{"measurement": "elution of MID1 B-boxes and α4 from immobilized HIS-tagged PP2Ac", "setting": "MID1-α4-PP2Ac complex", "value": "could be eluted from the column by adding metformin"}, {"measurement": "S6 phosphorylation (S241/244)", "setting": "[1]; 2.5 mM, within 4 h of exposure", "value": "significant dephosphorylation"}, {"measurement": "S6 phosphorylation (S241/244)", "setting": "[1]; increasing concentrations of metformin, 16 hours", "value": "dose dependent decrease"}, {"measurement": "brain de-phosphorylated form of tau at position Ser 202 (tau-1 antibody)", "setting": "tau", "value": "increase"}, {"measurement": "brain tau Ser202 phosphorylation", "setting": "tau", "value": "significant decrease"}, {"measurement": "brain tau Ser262 phosphorylation", "setting": "tau", "value": "significant decrease"}, {"measurement": "brain tau Ser 396 phosphorylation (PP2A independent epitope)", "setting": "tau", "value": "no effect"}, {"measurement": "PP2A activity of purified PP2Ac", "setting": "[2]", "value": "no influence"}, {"measurement": "brain AMPK phosphorylation (pThr 172)", "setting": "AMPK", "value": "no induction"}, {"measurement": "phosphorylation of human tau at Ser 202", "setting": "human tau", "value": "reacted in the same way"}, {"measurement": "activity of the immunopurified PP2A protein complex", "setting": "PP2A-holoenzymes", "value": "significantly increased"}]}
